The record followed here is US11753407B2, “Compounds for treating spinal muscular atrophy” (PTC Therapeutics, Inc., priority 2012, dated 2023).

In general, melting point refers to the temperature, or range, at which the solid turns liquid.

Each structure is given as a SMILES string.

The subject of data set [1] is SMN2 minigene mRNA (SMN2-A minigene) in HEK293H cells. Put plainly: SMN2 minigene mRNA splicing RT-qPCR assay in cultured cells. In kind it is cell-based, human. Conditions: Homo sapiens, HEK293-H; concentration increasing full length SMN2 mRNA 1.5-fold relative to vehicle-treated cells; HEK293H cells with SMN2-A minigene, 24 hours, 7-point concentration data; read-out: EC1.5x for production of full length SMN2 mRNA. The method in brief:
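Potency reflects the concentration that lifts full-length SMN2 minigene mRNA 1.5-fold above vehicle in stably transfected HEK293H cells after 24 h of treatment. Transcript abundance came from RT-qPCR as (1+E)^−Ct, normalized to GAPDH; endogenous SMN1/SMN2 are not detected.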
(Quantitative PCR measures a nucleic acid by following its amplification.)

Data set [2] concerns Smn protein in SMA patient fibroblast cells (GM03813). The data set is described as follows: Smn protein assay in cultured cells (SMN HTRF). In kind it is cell-based, human. Conditions: SMA patient fibroblast cells, 48 hours; for EC1.5x for Smn protein expression: 7-point concentration curve, SMN HTRF, concentration producing 1.5 times Smn protein vs DMSO vehicle control; for maximum fold (Fold) increase of Smn protein: 7-point concentration data, fold relative to vehicle control. Put shortly: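 Smn protein abundance in treated SMA fibroblasts was measured by HTRF after 48 h compound exposure. The reported EC1.5× is the concentration producing 1.5 times vehicle Smn levels.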
(In general: Time-resolved FRET reads energy transfer from a long-lived donor to a nearby acceptor.)

Compound `Cc1cn2nc(-c3cc(=O)n4cc(N5CCC(N6CCCC6)CC5)ccc4n3)cc2c(C)n1` [Compound 425, 2-(4,6-dimethylpyrazolo[1,5-a]pyrazin-2-yl)-7-[4-(pyrrolidin-1-yl)piperidin-1-yl]-4H-pyrido[1,2-a]pyrimidin-4-one] yielded a melting point of 215 to 218 °C. The EC (1.5-fold increase) in data set [1] is under 0.1 µM. In data set [2], the “EC1.5x for Smn protein expression” value is on record as “**** (an EC1.5x≤0.3 μM is indicated by four stars (****))” and the “maximum fold (Fold) increase of Smn protein” value (“maximum fold (Fold) increase” for short) is recorded as “***** (a fold increase >1.65 is indicated by five stars (*****))”.
Compound `Cc1cn2nc(-c3cc(=O)n4cc(N5CCC(N6CCCCC6)CC5)ccc4n3)cc2c(C)n1` [Compound 426, 7-(1,4′-bipiperidin-1′-yl)-2-(4,6-dimethylpyrazolo[1,5-a]pyrazin-2-yl)-4H-pyrido[1,2-a]pyrimidin-4-one] displayed a melting point of 236 to 238 °C. Also, the EC (1.5-fold increase) in data set [1] fell in the range of 0.3 to 1 µM. In data set [2], the “EC1.5x for Smn protein expression” value is “*** (an EC1.5× between >0.3 μM and ≤1 μM is indicated by three stars (***))”; the “maximum fold (Fold) increase” value was “***** (a fold increase >1.65 is indicated by five stars (*****))”.
`Cc1cn2nc(-c3cc(=O)n4cc(N5CCC(N6CCN(C)CC6)CC5)ccc4n3)cc2c(C)n1` [Compound 427, 2-(4,6-dimethylpyrazolo[1,5-a]pyrazin-2-yl)-7-[4-(4-methylpiperazin-1-yl)piperidin-1-yl]-4H-pyrido[1,2-a]pyrimidin-4-one]: the melting point lay within 198 to 200 °C. Moreover, the EC (1.5-fold increase) in data set [1] is 1 to 3 µM. Also, in data set [2], the “EC1.5x for Smn protein expression” value is “* (An EC1.5× for Smn protein expression between >3 μM and ≤10 μM is indicated by one star (*))”; the “maximum fold (Fold) increase” value is “*** (a fold increase between >1.35 and ≤1.5 is indicated by three stars (***))”.
In the case of `Cc1cn2nc(-c3cc(=O)n4cc(N5CCC(N6CCOCC6)CC5)ccc4n3)cc2c(C)n1` [Compound 428, 2-(4,6-dimethylpyrazolo[1,5-a]pyrazin-2-yl)-7-[4-(morpholin-4-yl)piperidin-1-yl]-4H-pyrido[1,2-a]pyrimidin-4-one], the melting point lay within 192 to 195 °C. Also, the EC (1.5-fold increase) in data set [1] fell in the range of 0.3 to 1 µM. In addition, in data set [2], the “EC1.5x for Smn protein expression” value is “** (an EC1.5× between >1 μM and ≤3 μM is indicated by two stars (**))”; the “maximum fold (Fold) increase” value is “*** (a fold increase between >1.35 and ≤1.5 is indicated by three stars (***))”.
With `Cc1cn2cc(-c3cc(=O)n4cc(C5=CCNCC5)ccc4n3)ccc2n1` [Compound 429, 2-(2-methylimidazo[1,2-a]pyridin-6-yl)-7-(1,2,3,6-tetrahydropyridin-4-yl)-4H-pyrido[1,2-a]pyrimidin-4-one], the melting point was 206 to 208 °C. The EC (1.5-fold increase) in data set [1] is under 0.1 µM. For the same compound, in data set [2], the “EC1.5x for Smn protein expression” value was “**** (an EC1.5x≤0.3 μM is indicated by four stars (****))”; the “maximum fold (Fold) increase” value was “**** (a fold increase between >1.5 and ≤1.65 is indicated by four stars (****))”.
`Cc1cn2cc(-c3cc(=O)n4cc(C5=CCN(C)CC5)ccc4n3)ccc2n1` [Compound 430, 2-(2-methylimidazo[1,2-a]pyridin-6-yl)-7-(1-methyl-1,2,3,6-tetrahydropyridin-4-yl)-4H-pyrido[1,2-a]pyrimidin-4-one] registered a melting point of 137 to 140 °C. In data set [1], the EC (1.5-fold increase) was under 0.1 µM. Further, in data set [2], the “EC1.5x for Smn protein expression” value is given as “**** (an EC1.5x≤0.3 μM is indicated by four stars (****))”; the “maximum fold (Fold) increase” value is “**** (a fold increase between >1.5 and ≤1.65 is indicated by four stars (****))”.
`CCN1CC=C(c2ccc3nc(-c4ccc5nc(C)cn5c4)cc(=O)n3c2)CC1` [Compound 431, 7-(1-ethyl-1,2,3,6-tetrahydropyridin-4-yl)-2-(2-methylimidazo[1,2-a]pyridin-6-yl)-4H-pyrido[1,2-a]pyrimidin-4-one] had a melting point of 220 to 223 °C. Also, the EC (1.5-fold increase) in data set [1] is under 0.1 µM. Further, in data set [2], the “EC1.5x for Smn protein expression” value is listed as “**** (an EC1.5x≤0.3 μM is indicated by four stars (****))” and the “maximum fold (Fold) increase” value is “***** (a fold increase >1.65 is indicated by five stars (*****))”.
On the same counts, the results for `Cc1cn2cc(-c3cc(=O)n4cc(N5CCC(N(C)C)CC5)ccc4n3)ccc2n1` [Compound 432, 7-[4-(dimethylamino)piperidin-1-yl]-2-(2-methylimidazo[1,2-a]pyridin-6-yl)-4H-pyrido[1,2-a]pyrimidin-4-one] are 204 to 206 °C, under 0.1 µM, “**** (an EC1.5x≤0.3 μM is indicated by four stars (****))” and “***** (a fold increase >1.65 is indicated by five stars (*****))”.
With `COc1ccc(-c2cc(=O)n3cc(N4CCC(NCCO)CC4)cc(C)c3n2)cc1OC` [Compound 433, 2-(3,4-dimethoxyphenyl)-7-{4-[(2-hydroxyethyl)amino]piperidin-1-yl}-9-methyl-4H-pyrido[1,2-a]pyrimidin-4-one], the melting point was 185 to 193 °C. In addition, the EC (1.5-fold increase) in data set [1] was under 0.1 µM. Besides, the “maximum fold (Fold) increase” value in data set [2] is “*** (a fold increase between >1.35 and ≤1.5 is indicated by three stars (***))”.
Consider `CCc1cc(C2CCN(C)CC2)cn2c(=O)cc(-c3ccc(OC)c(OC)c3)nc12` [Compound 434, 2-(3,4-dimethoxyphenyl)-9-ethyl-7-(1-methylpiperidin-4-yl)-4H-pyrido[1,2-a]pyrimidin-4-one], for which the melting point is 146 °C. Moreover, the EC (1.5-fold increase) in data set [1] is 0.3 to 1 µM. In addition, in data set [2], the “maximum fold (Fold) increase” value was “** (a fold increase between >1.2 and ≤1.35 is indicated by two stars (**))”.
Regarding `CCN(CC)C1CCN(c2cc(C)c3nc(-c4ccc(OC)c(OC)c4)cc(=O)n3c2)CC1` [Compound 435, 7-[4-(diethylamino)piperidin-1-yl]-2-(3,4-dimethoxyphenyl)-9-methyl-4H-pyrido[1,2-a]pyrimidin-4-one], the melting point lay within 149 to 155 °C. The EC (1.5-fold increase) in data set [1] lay within 0.1 to 0.3 µM. In data set [2], the “maximum fold (Fold) increase” value was “*** (a fold increase between >1.35 and ≤1.5 is indicated by three stars (***))”.
As for `CCc1cc(C2CCN(CC)CC2)cn2c(=O)cc(-c3ccc(OC)c(OC)c3)nc12` [Compound 436, 2-(3,4-dimethoxyphenyl)-9-ethyl-7-(1-ethylpiperidin-4-yl)-4H-pyrido[1,2-a]pyrimidin-4-one], the melting point lay within 157 to 162 °C. For the same compound, the EC (1.5-fold increase) in data set [1] was 0.3 to 1 µM. Further, the “maximum fold (Fold) increase” value in data set [2] was “** (a fold increase between >1.2 and ≤1.35 is indicated by two stars (**))”.
For the compound `Cc1cn2cc(-c3cc(=O)n4cc(N5CCC(N6CCCC6)CC5)ccc4n3)ccc2n1` [Compound 437, 2-(2-methylimidazo[1,2-a]pyridin-6-yl)-7-[4-(pyrrolidin-1-yl)piperidin-1-yl]-4H-pyrido[1,2-a]pyrimidin-4-one], the melting point is 230 to 232 °C. In addition, in data set [1], the EC (1.5-fold increase) was in the range of 0.1 to 0.3 µM. In data set [2], the “EC1.5x for Smn protein expression” value was “*** (an EC1.5× between >0.3 μM and ≤1 μM is indicated by three stars (***))”; the “maximum fold (Fold) increase” value was “**** (a fold increase between >1.5 and ≤1.65 is indicated by four stars (****))”.
On to `Cc1cn2cc(-c3cc(=O)n4cc(C5CCNCC5)ccc4n3)ccc2n1` [Compound 438, 2-(2-methylimidazo[1,2-a]pyridin-6-yl)-7-(piperidin-4-yl)-4H-pyrido[1,2-a]pyrimidin-4-one], for which the melting point is 298 to 300 °C. The EC (1.5-fold increase) in data set [1] is under 0.1 µM. For the same compound, in data set [2], the “EC1.5x for Smn protein expression” value is given as “**** (an EC1.5x≤0.3 μM is indicated by four stars (****))” and the “maximum fold (Fold) increase” value is “***** (a fold increase >1.65 is indicated by five stars (*****))”.
With `Cc1nc2ccc(-c3cc(=O)n4cc(C5CCN(C)CC5)ccc4n3)cc2s1` [Compound 439, 2-(2-methyl-1,3-benzothiazol-6-yl)-7-(1-methylpiperidin-4-yl)-4H-pyrido[1,2-a]pyrimidin-4-one], the melting point was 240 to 242 °C. For the same compound, the EC (1.5-fold increase) in data set [1] was in the range of 0.1 to 0.3 µM. For the same compound, in data set [2], the “EC1.5x for Smn protein expression” value was “** (an EC1.5× between >1 μM and ≤3 μM is indicated by two stars (**))”; the “maximum fold (Fold) increase” value was “*** (a fold increase between >1.35 and ≤1.5 is indicated by three stars (***))”.
For `Cc1cn2nc(-c3cc(=O)n4cc(N5CCN(C)CC5)ccc4n3)cc2cn1` [Compound 440, 7-(4-methylpiperazin-1-yl)-2-(6-methylpyrazolo[1,5-a]pyrazin-2-yl)-4H-pyrido[1,2-a]pyrimidin-4-one], the melting point is 230 to 240 °C. The EC (1.5-fold increase) in data set [1] was under 0.1 µM. Besides, in data set [2], the “EC1.5x for Smn protein expression” value is listed as “**** (an EC1.5x≤0.3 μM is indicated by four stars (****))”; the “maximum fold (Fold) increase” value is “**** (a fold increase between >1.5 and ≤1.65 is indicated by four stars (****))”.
